Legend:
Type in all cases: in vivo
[1] = test system: barnyardgrass (Echinochloa crus-galli); assay: Test G Pre-Emergence Protocol; details: Echinochloa crus-galli, pre-emergence, 312 h, evaluated after 13 days; for pest or weed control at 15.625 g/ha: 15.625 g ai/ha, read-out: Barnyard grass damage rating (100=total damage to plant; 0=no damage to plant); for pest or weed control at 62.5 g/ha: 62.5 g ai/ha, 100=total damage to plant, 0=no damage to plant, read-out: plant damage rating, Barnyardgrass; for pest or weed control at 250 g/ha: 250 g ai/ha, read-out: Barnyardgrass damage rating (100=total damage to plant; 0=no damage to plant)
Outline: (§1)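 Seeds were sown in standard soil and kept one day in a glasshouse (24/16° C day/night, 14 h light, 65% humidity), then sprayed with compound in acetone/water (50:50) containing 0.5% Tween 20 at 15.625, 62.5 or 250 g/ha. Damage was scored after 13 days (0 = none, 100 = total).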

corn (Zea mays) [2] = assay: Test G Pre-Emergence Protocol; details: Zea mays, pre-emergence, 312 h, evaluated after 13 days; for plant injury at 15.625 g/ha: 15.625 g ai/ha; for plant injury at 15.625 g/ha / plant injury at 250 g/ha: read-out: Corn damage rating (100=total damage to plant; 0=no damage to plant); for plant injury at 62.5 g/ha: 62.5 g ai/ha, 100=total damage to plant, 0=no damage to plant, read-out: plant damage rating, Corn; for plant injury at 250 g/ha: 250 g ai/ha
Outline: as §1

[3] = test system: giant foxtail (Setaria faberi); assay: Test G Pre-Emergence Protocol; details: Setaria faberi, pre-emergence, 312 h, evaluated after 13 days; for pest or weed control at 15.625 g/ha: 15.625 g ai/ha; for pest or weed control at 15.625 g/ha / pest or weed control at 250 g/ha: read-out: Foxtail, Giant damage rating (100=total damage to plant; 0=no damage to plant); for pest or weed control at 62.5 g/ha: 62.5 g ai/ha, 100=total damage to plant, 0=no damage to plant, read-out: plant damage rating, Foxtail, Giant; for pest or weed control at 250 g/ha: 250 g ai/ha
Outline: as §1

[4] = test system: ivy-leaved morning glory (Ipomoea hederacea); assay: Test G Pre-Emergence Protocol; details: Ipomoea, pre-emergence, 312 h, evaluated after 13 days; for pest or weed control at 15.625 g/ha: 15.625 g ai/ha, read-out: Morning-glory, Ivy-leaved damage rating (100=total damage to plant; 0=no damage to plant); for pest or weed control at 62.5 g/ha: 62.5 g ai/ha, 100=total damage to plant, 0=no damage to plant, read-out: plant damage rating, Morningglory, Ivy-leaved; for pest or weed control at 250 g/ha: 250 g ai/ha, read-out: Morningglory, Ivy-leaved damage rating (100=total damage to plant; 0=no damage to plant)
Outline: as §1

[5] = test system: redroot pigweed (Amaranthus retroflexus); assay: Test G Pre-Emergence Protocol; details: Amaranthus retroflexus, pre-emergence, 312 h, evaluated after 13 days; for pest or weed control at 15.625 g/ha: 15.625 g ai/ha; for pest or weed control at 15.625 g/ha / pest or weed control at 250 g/ha: read-out: Pigweed, Redroot damage rating (100=total damage to plant; 0=no damage to plant); for pest or weed control at 62.5 g/ha: 62.5 g ai/ha, 100=total damage to plant, 0=no damage to plant, read-out: plant damage rating, Pigweed, Redroot; for pest or weed control at 250 g/ha: 250 g ai/ha
Outline: as §1

[6] = test system: velvetleaf (Abutilon theophrasti); assay: Test G Pre-Emergence Protocol; details: Abutilon theophrasti, pre-emergence, 312 h, evaluated after 13 days; for pest or weed control at 15.625 g/ha: 15.625 g ai/ha; for pest or weed control at 15.625 g/ha / pest or weed control at 250 g/ha: read-out: Velvetleaf damage rating (100=total damage to plant; 0=no damage to plant); for pest or weed control at 62.5 g/ha: 62.5 g ai/ha, 100=total damage to plant, 0=no damage to plant, read-out: plant damage rating, Velvetleaf; for pest or weed control at 250 g/ha: 250 g ai/ha
Outline: as §1

[7] = test system: barnyardgrass (Echinochloa crus-galli); assay: Test G Post-Emergence Protocol; details: Echinochloa crus-galli, post-emergence, 312 h; for pest or weed control at 15.625 g/ha: 15.625 g ai/ha, evaluated after 13 days (100=total damage to plant; 0=no damage to plant), read-out: Barnyardgrass damage rating; for pest or weed control at 62.5 g/ha: 62.5 g ai/ha, read-out: Barnyardgrass damage rating (100=total damage to plant; 0=no damage to plant); for pest or weed control at 62.5 g/ha / pest or weed control at 250 g/ha: evaluated after 13 days; for pest or weed control at 250 g/ha: 250 g ai/ha, read-out: damage to plant, Barnyardgrass (100=total damage to plant; 0=no damage to plant)
Outline: (§2)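 Foliar application was made 8 days after sowing, using an aqueous spray of the active in acetone/water (50:50) with 0.5% Tween 20, at doses of 15.625, 62.5 or 250 g/ha. Injury was assessed 13 days later, where 100 meant the plant was fully damaged.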

corn (Zea mays) [8] = assay: Test G Post-Emergence Protocol; details: Zea mays, post-emergence, 312 h; for plant injury at 15.625 g/ha: 15.625 g ai/ha, evaluated after 13 days (100=total damage to plant; 0=no damage to plant), read-out: Corn damage rating; for plant injury at 62.5 g/ha: 62.5 g ai/ha, read-out: Corn damage rating (100=total damage to plant; 0=no damage to plant); for plant injury at 62.5 g/ha / plant injury at 250 g/ha: evaluated after 13 days; for plant injury at 250 g/ha: 250 g ai/ha, read-out: damage to plant, Corn (100=total damage to plant; 0=no damage to plant)
Outline: as §2

[9] = test system: giant foxtail (Setaria faberi); assay: Test G Post-Emergence Protocol; details: Setaria faberi, post-emergence, 312 h; for pest or weed control at 15.625 g/ha: 15.625 g ai/ha, evaluated after 13 days (100=total damage to plant; 0=no damage to plant), read-out: Foxtail, Giant damage rating; for pest or weed control at 62.5 g/ha: 62.5 g ai/ha, read-out: Foxtail, Giant damage rating (100=total damage to plant; 0=no damage to plant); for pest or weed control at 62.5 g/ha / pest or weed control at 250 g/ha: evaluated after 13 days; for pest or weed control at 250 g/ha: 250 g ai/ha, read-out: damage to plant, Foxtail, Giant (100=total damage to plant; 0=no damage to plant)
Outline: as §2

[10] = test system: ivy-leaved morning glory (Ipomoea hederacea); assay: Test G Post-Emergence Protocol; details: Ipomoea, post-emergence, 312 h; for pest or weed control at 15.625 g/ha: 15.625 g ai/ha, evaluated after 13 days (100=total damage to plant; 0=no damage to plant), read-out: Morningglory, Ivy-leaved damage rating; for pest or weed control at 62.5 g/ha: 62.5 g ai/ha, read-out: Morningglory, Ivy-leaved damage rating (100=total damage to plant; 0=no damage to plant); for pest or weed control at 62.5 g/ha / pest or weed control at 250 g/ha: evaluated after 13 days; for pest or weed control at 250 g/ha: 250 g ai/ha, read-out: damage to plant, Morningglory, Ivy-leaved (100=total damage to plant; 0=no damage to plant)
Outline: as §2

[11] = test system: redroot pigweed (Amaranthus retroflexus); assay: Test G Post-Emergence Protocol; details: Amaranthus retroflexus, post-emergence, 312 h; for pest or weed control at 15.625 g/ha: 15.625 g ai/ha, evaluated after 13 days (100=total damage to plant; 0=no damage to plant), read-out: Pigweed, Redroot damage rating; for pest or weed control at 62.5 g/ha: 62.5 g ai/ha, read-out: Pigweed, Redroot damage rating (100=total damage to plant; 0=no damage to plant); for pest or weed control at 62.5 g/ha / pest or weed control at 250 g/ha: evaluated after 13 days; for pest or weed control at 250 g/ha: 250 g ai/ha, read-out: damage to plant, Pigweed, Redroot (100=total damage to plant; 0=no damage to plant)
Outline: as §2

[12] = test system: velvetleaf (Abutilon theophrasti); assay: Test G Post-Emergence Protocol; details: Abutilon theophrasti, post-emergence, 312 h; for pest or weed control at 15.625 g/ha: 15.625 g ai/ha, evaluated after 13 days (100=total damage to plant; 0=no damage to plant), read-out: Velvetleaf damage rating; for pest or weed control at 62.5 g/ha: 62.5 g ai/ha, read-out: Velvetleaf damage rating (100=total damage to plant; 0=no damage to plant); for pest or weed control at 62.5 g/ha / pest or weed control at 250 g/ha: evaluated after 13 days; for pest or weed control at 250 g/ha: 250 g ai/ha, read-out: damage to plant, Velvetleaf (100=total damage to plant; 0=no damage to plant)
Outline: as §2

Compound: CN1C[C@@H](c2ccc(C(F)(F)F)cc2)[C@H](C(=O)Nc2ccncc2Cl)C1=O (racemic) [Compound 1608]
- pest or weed control at 15.625 g/ha [1]: 0%
- pest or weed control at 62.5 g/ha [1]: 0%
- pest or weed control at 250 g/ha [1]: 0%
- plant injury at 15.625 g/ha (corn (Zea mays) [2]): 0%
- plant injury at 62.5 g/ha (corn (Zea mays) [2]): 0%
- plant injury at 250 g/ha (corn (Zea mays) [2]): 0%
- pest or weed control at 15.625 g/ha [3]: 0%
- pest or weed control at 62.5 g/ha [3]: 0%
- pest or weed control at 250 g/ha [3]: 0%
- pest or weed control at 15.625 g/ha [4]: 0%
- pest or weed control at 62.5 g/ha [4]: 0%
- pest or weed control at 250 g/ha [4]: 0%
- pest or weed control at 15.625 g/ha [5]: 0%
- pest or weed control at 62.5 g/ha [5]: 10%
- pest or weed control at 250 g/ha [5]: 20%
- pest or weed control at 15.625 g/ha [6]: 0%
- pest or weed control at 62.5 g/ha [6]: 0%
- pest or weed control at 250 g/ha [6]: 0%
- pest or weed control at 15.625 g/ha [7]: 0%
- pest or weed control at 62.5 g/ha [7]: 10%
- pest or weed control at 250 g/ha [7]: 10%
- plant injury at 15.625 g/ha (corn (Zea mays) [8]): 0%
- plant injury at 62.5 g/ha (corn (Zea mays) [8]): 10%
- plant injury at 250 g/ha (corn (Zea mays) [8]): 20%
- pest or weed control at 15.625 g/ha [9]: 0%
- pest or weed control at 62.5 g/ha [9]: 10%
- pest or weed control at 250 g/ha [9]: 60%
- pest or weed control at 15.625 g/ha [10]: 40%
- pest or weed control at 62.5 g/ha [10]: 30%
- pest or weed control at 250 g/ha [10]: 40%
- pest or weed control at 15.625 g/ha [11]: 0%
- pest or weed control at 62.5 g/ha [11]: 10%
- pest or weed control at 250 g/ha [11]: 20%
- pest or weed control at 15.625 g/ha [12]: 0%
- pest or weed control at 62.5 g/ha [12]: 0%
- pest or weed control at 250 g/ha [12]: 0%

Compound: CN1C[C@H](c2ccc(C(F)(F)F)cc2)[C@@H](C(=O)Nc2ccc(Cl)cc2[N+](=O)[O-])C1=O (racemic) [Compound 1432]
- pest or weed control at 15.625 g/ha [1]: 0%
- pest or weed control at 62.5 g/ha [1]: 0%
- pest or weed control at 250 g/ha [1]: 0%
- plant injury at 15.625 g/ha (corn (Zea mays) [2]): 0%
- plant injury at 62.5 g/ha (corn (Zea mays) [2]): 0%
- plant injury at 250 g/ha (corn (Zea mays) [2]): 0%
- pest or weed control at 15.625 g/ha [3]: 0%
- pest or weed control at 62.5 g/ha [3]: 0%
- pest or weed control at 250 g/ha [3]: 0%
- pest or weed control at 15.625 g/ha [4]: 0%
- pest or weed control at 62.5 g/ha [4]: 0%
- pest or weed control at 250 g/ha [4]: 0%
- pest or weed control at 15.625 g/ha [5]: 0%
- pest or weed control at 62.5 g/ha [5]: 0%
- pest or weed control at 250 g/ha [5]: 0%
- pest or weed control at 15.625 g/ha [6]: 0%
- pest or weed control at 62.5 g/ha [6]: 0%
- pest or weed control at 250 g/ha [6]: 0%
- pest or weed control at 15.625 g/ha [7]: 0%
- pest or weed control at 62.5 g/ha [7]: 0%
- pest or weed control at 250 g/ha [7]: 0%
- plant injury at 15.625 g/ha (corn (Zea mays) [8]): 0%
- plant injury at 62.5 g/ha (corn (Zea mays) [8]): 0%
- plant injury at 250 g/ha (corn (Zea mays) [8]): 0%
- pest or weed control at 15.625 g/ha [9]: 0%
- pest or weed control at 62.5 g/ha [9]: 0%
- pest or weed control at 250 g/ha [9]: 0%
- pest or weed control at 15.625 g/ha [10]: 0%
- pest or weed control at 62.5 g/ha [10]: 0%
- pest or weed control at 250 g/ha [10]: 0%
- pest or weed control at 15.625 g/ha [11]: 0%
- pest or weed control at 62.5 g/ha [11]: 0%
- pest or weed control at 250 g/ha [11]: 0%
- pest or weed control at 15.625 g/ha [12]: 0%
- pest or weed control at 62.5 g/ha [12]: 0%
- pest or weed control at 250 g/ha [12]: 0%

Source: patent US12077503B2, “Substituted cyclic amides and their use as herbicides” (FMC CORPORATION, priority 2015, dated 2024)
